According to US20180256673A1, “METHODS FOR TREATING FUNGAL INFECTIONS” (priority 2015, published 2018):
Values after ≈ are worked out from the molar mass of the structure shown. Values joined by “and” are separate entries in the source; they are usually repeats but may differ in a detail not shown here. Identical values can stand only once. Like-named read-outs stand apart in the source and are kept apart here.

Tests used:
Aspergillus fumigatus = assay: Broth microdilution of invasive fungal isolates (CLSI M27-A3/M38-A2), MEC; assay type: cell-based; details: 56 isolates
[1] = test system: C. glabrata ATCC 90030, ATCC 2001; assay: Broth microdilution MIC (CLSI), Examples 3 and 4; details: for MIC: Nakaseomyces glabratus
Experimental: Antifungal susceptibility testing. Candida strains were cultured aerobically at 35° C. on SDA plates or in RPMI 1640 broth (pH 7.0). […] MIC assays were performed in triplicate.

C. albicans NRRL Y-477 = assay type: cell-based, Candida albicans
Experimental: (§1) Spontaneous mutant selection. […] Three individual colonies from each strain were used to start cultures in RPMI. […] One milliliter aliquots were spread onto SDA plates containing drug with sterile glass beads. Starting viable count was enumerated by triplicate plating of serial dilutions of the starting inoculum. […] Glycerol stocks of putative mutant colonies were stored at −80° C. […] Spontaneous mutation frequencies were calculated by dividing the number of resistant colonies on a given plate by the starting inoculum plated. A subset of mutants (weighted heavily towards those selected with CMP1) were then evaluated by MIC and sequencing of FKS gene hot spot regions.

[2] = test system: C. glabrata ATCC 90030, ATCC 2001; assay type: cell-based, Candida glabrata; details: for Freq. (replicate mutation frequency): replicate plates 1-3; for Plate concentration: SDA, minimum concentration to cleanly inhibit growth
Experimental: as §1

[3] = test system: C. albicans vaginal isolates; assay: Susceptibility testing of VVC clinical isolates at pH 7 and 4 (CLSI M27-A3); assay type: cell-based, Candida albicans; details: Candida albicans; for MIC: read-out: MIC; for MIC90: 60 isolates, read-out: MIC90
Candida albicans = assay: Broth microdilution of invasive fungal isolates (CLSI M27-A3/M38-A2); assay type: cell-based; details: 251 isolates

CC[C@H](C)C[C@H](C)CCCCCCCCC(=O)N[C@H]1C[C@@H](O)[C@@H](NCCN)NC(=O)[C@@H]2[C@@H](O)CCN2C(=O)[C@H]([C@H](O)CCN)NC(=O)[C@H]([C@H](O)[C@@H](O)c2ccc(O)cc2)NC(=O)[C@@H]2C[C@@H](O)CN2C(=O)[C@H]([C@@H](C)O)NC1=O [CAS, caspofungin]
Cumulative % of isolates inhibited at MEC 0.06 μg/mL (Aspergillus fumigatus): (100.0) %
Number of isolates inhibited at MEC 0.015 μg/mL (Aspergillus fumigatus): 18
Number of isolates inhibited at MEC 0.03 μg/mL (Aspergillus fumigatus): 35
Number of isolates inhibited at MEC 0.06 μg/mL (Aspergillus fumigatus): 3
Broth MIC ([1]; ATCC 2001 wild-type, 24 h, ~50% inhibition): 0.25 mg/L
MIC ([1]; 24 h, read-out: Broth MIC): 0.25 mg/L (≈ 0.229 µM)
MIC ([1]; ATCC2001|ATCC90030, ATCC 2001 spontaneous mutant, Fks2 HS1 D666N): 0.25 mg/L (≈ 0.229 µM)
MIC ([1]; ATCC2001|ATCC90030, ATCC 2001 spontaneous mutant, Fks2 HS1 D666Y): 0.5 mg/L (≈ 0.457 µM)
MIC ([1]; ATCC2001|ATCC90030, ATCC 2001 spontaneous mutant, Fks2 HS1 R665G): 0.5 mg/L (≈ 0.457 µM)
MIC ([1]; ATCC2001|ATCC90030, ATCC 2001 spontaneous mutant, Fks2 HS1 S663F): 1 mg/L (≈ 0.915 µM)
MIC ([1]; ATCC2001|ATCC90030, ATCC 2001 spontaneous mutant, Fks2 HS1 ΔF659): 16 mg/L (≈ 14.6 µM)
MIC ([1]; ATCC2001|ATCC90030, ATCC 2001 spontaneous mutant, Fks2 HS2 R1378S): 0.25 mg/L (≈ 0.229 µM)
MIC ([1]; ATCC2001|ATCC90030, ATCC 90030 spontaneous mutant, Fks2 HS1 D666H): 1 mg/L (≈ 0.915 µM)
MIC ([1]; ATCC2001|ATCC90030, ATCC 90030 spontaneous mutant, Fks2 HS1 ΔF659): 4 mg/L (≈ 3.66 µM)
Median mutation frequency (C. albicans NRRL Y-477): 1.14E−08
Plate concentration (C. albicans NRRL Y-477; SDA, minimum concentration to cleanly inhibit growth): 0.25 µg/mL
Freq. (replicate mutation frequency) (C. albicans NRRL Y-477; replicate plates 1-3): 1.25E−08 and 1.14E−08 and 7.81E−09
Median mutation frequency ([2]; ATCC 2001): 3.16E−08
Freq. (replicate mutation frequency) ([2]; ATCC 2001): 3.16E−08 and 2.92E−08 and 3.50E−08
Median mutation frequency ([2]; ATCC 90030): 3.45E−07
Freq. (replicate mutation frequency) ([2]; ATCC 90030): 4.85E−07 and 3.45E−07 and 2.57E−07
Plate concentration ([2]; ATCC 2001): 0.5 µg/mL
Plate concentration ([2]; ATCC 90030): 0.5 µg/mL
MIC ([3]; 48 h, pH 4, fluconazole-resistant isolate 1, pH 4, 48 h): 0.25 mg/L (≈ 0.229 µM)
MIC ([3]; 48 h, pH 4, fluconazole-resistant isolate 2, pH 4, 48 h): 1 mg/L (≈ 0.915 µM)
MIC ([3]; 48 h, pH 4, fluconazole-resistant isolate 3, pH 4, 48 h): 0.5 mg/L (≈ 0.457 µM)
MIC ([3]; 48 h, pH 4, fluconazole-resistant isolate 4, pH 4, 48 h): 1 mg/L (≈ 0.915 µM)
MIC ([3]; 48 h, pH 4, fluconazole-resistant isolate 5, pH 4, 48 h): 4 mg/L (≈ 3.66 µM)
MIC ([3]; 48 h, pH 4, fluconazole-resistant isolate 6, pH 4, 48 h): 1 mg/L (≈ 0.915 µM)
MIC ([3]; 48 h, pH 4, fluconazole-resistant isolate 7, pH 4, 48 h): 1 mg/L (≈ 0.915 µM)
MIC ([3]; 48 h, pH 4, fluconazole-resistant isolate 8, pH 4, 48 h): 0.5 mg/L (≈ 0.457 µM)
MIC ([3]; 48 h, pH 4, fluconazole-resistant isolate 9, pH 4, 48 h): 1 mg/L (≈ 0.915 µM)
MIC ([3]; 48 h, pH 4, fluconazole-resistant isolate 10, pH 4, 48 h): 1 mg/L (≈ 0.915 µM)
MIC ([3]; 48 h, pH 7, fluconazole-resistant isolate 1, pH 7, 48 h): 0.5 mg/L (≈ 0.457 µM)
MIC ([3]; 48 h, pH 7, fluconazole-resistant isolate 2, pH 7, 48 h): 0.5 mg/L (≈ 0.457 µM)
MIC ([3]; 48 h, pH 7, fluconazole-resistant isolate 3, pH 7, 48 h): 0.5 mg/L (≈ 0.457 µM)
MIC ([3]; 48 h, pH 7, fluconazole-resistant isolate 4, pH 7, 48 h): 0.5 mg/L (≈ 0.457 µM)
MIC ([3]; 48 h, pH 7, fluconazole-resistant isolate 5, pH 7, 48 h): 2 mg/L (≈ 1.83 µM)
MIC ([3]; 48 h, pH 7, fluconazole-resistant isolate 6, pH 7, 48 h): 1 mg/L (≈ 0.915 µM)
MIC ([3]; 48 h, pH 7, fluconazole-resistant isolate 7, pH 7, 48 h): 0.5 mg/L (≈ 0.457 µM)
MIC ([3]; 48 h, pH 7, fluconazole-resistant isolate 8, pH 7, 48 h): 0.5 mg/L (≈ 0.457 µM)
MIC ([3]; 48 h, pH 7, fluconazole-resistant isolate 9, pH 7, 48 h): 2 mg/L (≈ 1.83 µM)
MIC ([3]; 48 h, pH 7, fluconazole-resistant isolate 10, pH 7, 48 h): 0.5 mg/L (≈ 0.457 µM)
MIC90 ([3]; pH 4, 24 h): 0.5 mg/L (≈ 0.457 µM)
MIC90 ([3]; pH 4, 48 h): 1 mg/L (≈ 0.915 µM)
MIC90 ([3]; pH 7, 24 h): 0.5 mg/L (≈ 0.457 µM)
MIC90 ([3]; pH 7, 48 h): 1 mg/L (≈ 0.915 µM)
Cumulative % of isolates inhibited at MIC 0.015 μg/mL (Candida albicans): (31.9) %
Cumulative % of isolates inhibited at MIC 0.03 μg/mL (Candida albicans): (85.7) %
Cumulative % of isolates inhibited at MIC 0.06 μg/mL (Candida albicans): (99.2) %
Cumulative % of isolates inhibited at MIC 0.12 μg/mL (Candida albicans): (100.0) %
Cumulative % of isolates inhibited at MIC ≤0.008 μg/mL (Candida albicans): 1.6%
Number of isolates inhibited at MIC 0.015 μg/mL (Candida albicans): 76
Number of isolates inhibited at MIC 0.03 μg/mL (Candida albicans): 135
Number of isolates inhibited at MIC 0.06 μg/mL (Candida albicans): 34
Number of isolates inhibited at MIC 0.12 μg/mL (Candida albicans): 2
Number of isolates inhibited at MIC ≤0.008 μg/mL (Candida albicans): 4
MIC50 (Candida albicans; Candida albicans, read-out: MIC50): 0.03 mg/L (≈ 0.0274 µM)
MIC90 (Candida albicans; Candida albicans, read-out: MIC90): 0.06 mg/L (≈ 0.0549 µM)
